Key:
thermal hyperalgesia = conditions: capsazepine administration; ref [12],[32],[33],[34]; cited from earlier work
TRPV1 channel = tested on: TRPV1 channel; parameters: method as in 4 sources, ref [12]; anandamide and 2-AG ref [13],[14],[15],[16] ||| ref [88],[89] = [88]; PMID 27281200; doi:10.1038/nature17964; 88. Gao Y. Cao E. Julius D. Cheng Y. TRPV1 structures in nanodiscs reveal mechanisms of ligand and lipid action Nature 2016 534 347 351 10.1038/nature17964 27281200 PMC4911334 || [89]; PMID 37117175; doi:10.1038/s41467-023-38162-9; 89. Neuberger A. Oda M. Nikolaev Y.A. Nadezhdin K.D. Gracheva E.O. Bagriantsev S.N. Sobolevsky A.I. Human TRPV1 structure and inhibition by the analgesic SB-366791 Nat. Commun. 2023 14 2451 10.1038/s4 ||| ref [90] = [90]; PMID 38698206; doi:10.1038/s41594-024-01299-2; 90. Arnold W.R. Mancino A. Moss F.R. Frost A. Julius D. Cheng Y. Structural basis of TRPV1 modulation by endogenous bioactive lipids Nat. Struct. Mol. Biol. 2024 1 9 10.1038/s41594-024-01299-2 3869820 ||| ref [67] = [67]; PMID 29117570; doi:10.1016/j.celrep.2017.10.063; 67. Nersesyan Y. Demirkhanyan L. Cabezas-Bratesco D. Oakes V. Kusuda R. Dawson T. Sun X. Cao C. Cohen A.M. Chelluboina B. Oxytocin Modulates Nociception as an Agonist of Pain-Sensing TRPV1 Cell Rep. 2; conditions: cited from earlier work
Text: The transient receptor potential (TRP) channels family involves several subfamilies, including the vanilloid (TRPVs) group. TRPV1, a member of the TRPV subfamily, is a non-selective cationic homotetramer channel. It is known to be activated by various stimuli, including temperature, capsaicin (the principal compound in chili peppers), and endocannabinoids such as anandamide (AEA) and 2-arachidonoylglycerol (2-AG). The TRPV1 channel protein is found in the central (CNS) and peripheral nervous system (PNS). In the CNS, TRPV1 is expressed in the prefrontal cort ... || Molecular dynamics (MD) simulations allow studying protein dynamics at an atomic level under physiological conditions, enhancing our understanding of various proteins, including ion channels like TRPV1 [82]. These simulations provide insight into their function, conformational changes, and interactions with different ligands.

[1] = tested on: untransfected HEK293 cells; assay: Whole-cell voltage-clamp recording, untransfected HEK293 cells; format: cell-based; conditions: 1 µM Cap; voltage ramp -80 to 80 mV; room temperature
Experimental: (§1) Dr. Alejandro Maureira, Universidad Católica del Maule, Chile, generously provided HEK293 cells. The cells were cultured in T75 flasks (Corning Inc., Corning, NY, USA) in a humidified atmosphere at 37 °C with 5% CO2 in Dulbecco’s Modified Eagle Medium (DMEM) with high glucose (Cytiva, Marlborough, MA, USA), supplemented with 10% fetal bovine serum (Cytiva, Marlborough, MA, USA) and a mixture of 100 IU/mL penicillin and 100 µg/mL streptomycin (Corning Inc., Corning, NY, USA) in a CO2CELL incubator (MMM Group, Munich, Germany). This procedure was used to maintain the cells for all of the experiments.
Untransfected and transfected HEK293 cells with the human TRPV1-GFP were recorded using a whole-cell voltage clamp. Cells were cultured in 15 mm round coverslips pretreated with 0.1 mg/mL poly-L-lysine (Gibco, Billings, MT, USA) and transfected with TRPV1-GFP plasmid. TRPV1-GFP-positive cells were identified using a 405 nm LED light in a Nikon Eclipse Ts2 inverted microscope. Borosilicate pipettes (nº 1B150F-4, World Precision Instruments, Sarasota, FL, USA) of 2.8’5 MΩ were used. Pipettes were pulled with a P-97 Micropipette Puller (Sutter Instruments, Novato, CA, USA). […] All the experiments were recorded using a HEKA EPC9 amplifier. […] Data were analyzed using Clampfit v.7 software (Molecular Devices, San Jose, CA, USA). […]
The data were analyzed and plotted using GraphPad software v10.0.2. […]

[2] = tested on: HEK293-untransfected cells; assay: Calcium imaging (Fura Red-AM), untransfected HEK293 cells; format: cell-based; conditions: 1 µM Cap, confocal, pH 7.4, room temperature, n: 26
Experimental: Dr. Alejandro Maureira, Universidad Católica del Maule, Chile, generously provided HEK293 cells. The cells were cultured in T75 flasks (Corning Inc., Corning, NY, USA) in a humidified atmosphere at 37 °C with 5% CO2 in Dulbecco's Modified Eagle Medium (DMEM) with high glucose (Cytiva, Marlborough, MA, USA), supplemented with 10% fetal bovine serum (Cytiva, Marlborough, MA, USA) and a mixture of 100 IU/mL penicillin and 100 μg/mL streptomycin (Corning Inc., Corning, NY, USA) in a CO2CELL incubator (MMM Group, Munich, Germany). This procedure was used to maintain the cells for all of the experiments. […] Then, the cells were washed and cultured during the experiment with the extracellular solution containing (in mM) 140 NaCl, 5 KCl, 2 CaCl2, 1 MgCl2, 10 HEPES, and 6 glucose, with pH adjusted to 7.4 with NaOH [13]. Calcium images were obtained every 3 s for 30 min using Leica Stellaris 5 spectral confocal microscopy. […] Fura Red emissions in bound and unbound states were acquired around their peaks at 610 nm and 670 nm, respectively. The bound and unbound fluorescence of Fura Red-AM was acquired using Leica LAS X v.4.3.0.24308 software. The Fura Red-Am bound and unbound ratio was calculated (405 nm/488 nm) and plotted. […] The data were analyzed and plotted using GraphPad software v10.0.2. […]

[3] = cited from earlier work
Text: Capsaicin creams and patches have been used in the treatment of muscle pain, neuropathic pain, arthritis, and migraines. […] CNTX-4975 has been developed as a treatment option for pain in individuals with osteoarthritis.

human TRPV1 channel [4] = target: T1, human TRPV1 channel (Homo sapiens, UniProt Q8NER1); assay: Whole-cell voltage-clamp recording of TRPV1 currents, HEK293 cells with human TRPV1-GFP; format: cell-based; conditions: 1 µM Cap; voltage ramp -80 to 80 mV, +80 mV; n: 7; **** p < 0.0001; room temperature
T1 construct: host or cells: HEK293
Experimental: as §1
(§2) HEK293 cells were transfected with the human TRPV1 channel coupled to GFP in its C-terminus (TRPV1-GFP, catalog #: RG217653, Origene, Rockville, MD, USA). […] Transfections were conducted using Lipofectamine 3000 (Invitrogen, Waltham, MA, USA), according to the manufacturer’s instructions. Experimental protocols were performed 24 h post-transfection.
Untransfected and transfected HEK293 cells with the human TRPV1-GFP were recorded using a whole-cell voltage clamp. Cells were cultured in 15 mm round coverslips pretreated with 0.1 mg/mL poly-L-lysine (Gibco, Billings, MT, USA) and transfected with TRPV1-GFP plasmid. TRPV1-GFP-positive cells were identified using a 405 nm LED light in a Nikon Eclipse Ts2 inverted microscope. Borosilicate pipettes (nº 1B150F-4, World Precision Instruments, Sarasota, FL, USA) of 2.8’5 MΩ were used. Pipettes were pulled with a P-97 Micropipette Puller (Sutter Instruments, Novato, CA, USA). The extracellular solution contained (in mM) 140 NaCl, 5 KCl, 2 CaCl2, 1 MgCl2, 10 HEPES, and 6 glucose at pH 7.4. The internal solution contained (in mM) 140 CsCl, 4 MgCl2, 10 EGTA, and 10 HEPES-CsOH at pH 7.3. All the experiments were recorded using a HEKA EPC9 amplifier. The holding potential was −80 mV. A 500 ms voltage ramp from −80 to 80 mV was applied to record TRPV1 currents. The sample frequency was 50 kHz, and the signals were filtered at 2.9 kHz using PatchMaster software. Data were analyzed using Clampfit v.7 software (Molecular Devices, San Jose, CA, USA). The extracellular solution and ligands were administered using a VC-8 perfusion system (~2 mL/s, Warner Instruments, Holliston, MA, USA). We used capsaicin (Cayman Chemicals, nº 92350), SB366791 (nº 11019, Cayman Chemicals, Ann Arbor, MI, USA), and RVD-Hp (Synbio Technologies, Monmouth Junction, NJ, USA). We used dimethyl sulfoxide (DMSO, Sigma-Aldrich, St. Louis, MO, USA) and untransfected cells as controls. Electrophysiological recordings were performed at room temperature.
(§3) The data were analyzed and plotted using GraphPad software v10.0.2. We used the Shapiro–Wilk test to determine the data distribution. […] Statistically significant values were considered when p values were * p < 0.05, ** p < 0.01, *** p < 0.001, and **** p < 0.0001.

human TRPV1 channel [5] = target: T1, human TRPV1 channel; assay: Calcium imaging (Fura Red-AM), HEK293 cells transfected with hTRPV1-GFP; format: cell-based; conditions: 1 µM Cap; hTRPV1-GFP HEK293; pH 7.4, room temperature; n: 58; vs DMSO **** p < 0.0001
Experimental: as §1, §2, §3

T1 sequence (Q8NER1 whole entry): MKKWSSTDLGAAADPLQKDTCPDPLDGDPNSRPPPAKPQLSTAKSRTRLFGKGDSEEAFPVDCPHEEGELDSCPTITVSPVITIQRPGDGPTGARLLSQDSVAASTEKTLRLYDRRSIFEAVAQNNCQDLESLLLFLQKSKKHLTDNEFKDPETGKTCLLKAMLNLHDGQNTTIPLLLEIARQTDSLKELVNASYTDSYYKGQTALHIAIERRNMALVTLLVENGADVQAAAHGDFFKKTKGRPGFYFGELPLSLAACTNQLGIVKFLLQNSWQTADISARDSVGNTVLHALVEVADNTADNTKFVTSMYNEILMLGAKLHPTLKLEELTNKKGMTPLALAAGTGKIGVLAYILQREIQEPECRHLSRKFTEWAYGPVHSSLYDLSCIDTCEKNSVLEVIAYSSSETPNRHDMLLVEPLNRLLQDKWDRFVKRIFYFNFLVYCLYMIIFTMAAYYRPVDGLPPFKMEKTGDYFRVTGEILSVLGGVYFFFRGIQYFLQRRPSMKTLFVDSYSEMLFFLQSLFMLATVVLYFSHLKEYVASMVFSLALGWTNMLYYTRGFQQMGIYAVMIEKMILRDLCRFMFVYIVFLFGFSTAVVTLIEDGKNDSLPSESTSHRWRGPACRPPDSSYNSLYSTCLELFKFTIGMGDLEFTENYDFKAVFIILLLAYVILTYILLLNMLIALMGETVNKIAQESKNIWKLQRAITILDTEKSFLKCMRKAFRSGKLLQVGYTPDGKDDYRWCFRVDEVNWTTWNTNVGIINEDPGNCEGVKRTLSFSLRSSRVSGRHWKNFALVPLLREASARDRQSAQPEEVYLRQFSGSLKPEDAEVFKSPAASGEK

Row | Structure (SMILES) | Thermal hyperalgesia (thermal hyperalgesia) | TRPV1 binding mode of antagonists (TRPV1 channel; requiring four molecules to induce channel closure, ref [88],[89]) | TRPV1 currents in untransfected cells [1] | Intracellular Ca^2+ concentration (Fura Red ratio 405 nm/488 nm) in untransfected cells [2] | Efficacy and bioavailability in vivo [3] | Water solubility [3] | Side effects ([3]; oral administration, ref [98]) | Cap-induced TRPV1 currents (human TRPV1 channel [4]) | Intracellular Ca^2+ concentration (Fura Red ratio 405 nm/488 nm), agonist response (human TRPV1 channel [5]) | TRPV1 activation (TRPV1 channel; capsaicin ref [12], anandamide and 2-AG ref [13],[14],[15],[16])
1 | Oc1cc2c(cc1O)CN(C(=S)NCCc1ccc(Cl)cc1)CCC2 [capsazepine] | reduces thermal hyperalgesia | bind to the vanilloid pocket and compete with capsaicin |  |  |  |  |  |  |  | 
2 | COc1cc(CNC(=O)CCCC/C=C/C(C)C)ccc1O [capsaicin] |  |  | did not observe TRPV1 currents | did not induce an increase in intracellular Ca^2+ concentration | limited efficacy and bioavailability in vivo | poor water solubility | irritation, orofacial pain, and gastric ulcers | showed Cap-induced currents | produced an increase in intracellular Ca^2+ concentration | activated

From publication PMC11430712, “The Endocannabinoid Peptide RVD-Hemopressin Is a TRPV1 Channel Blocker” (Biomolecules, 2024)
